In US7949164B2, “Lung cancer diagnosis using magnetic resonance imaging data obtained at three time points” (Yeda Research & Development Co. Ltd., priority 2005, dated 2011):

Experiments:
[1] = Contrast agent pharmacokinetics in plasma: bi-exponential fit of DCE-MRI signal enhancement curves (heart ventricle / great vessels) after bolus injection; assay type: in vivo; details: nude rats, bolus into tail vein, dose 0.1 mmol/kg wt
Experimental: Enhancement, E(t), is defined as the difference in signal intensities before and after contrast material injection: E(t)=[I(t)−I(t0)]/I(t0) Eq. (1) where I designates signal intensity. Assuming similar pharmacokinetics for all patients with normal kidney function, Cp(t) in ml contrast agent per liter blood may be given by the equation: Cp(t)=D(a1e^−m1^t+a2e^−m2^t) D=dose in ml/kg Eq. (2)
To determine contrast agent pharmacokinetics, GdDTPA was injected as a bolus into the tail of the rats at a dose of 0.1 mmol/kg. Changes in the bolus concentration of the contrast agent after injection were monitored by fitting the signal enhancement curves of the in vivo DCE-MRI studies, of regions of interest at the heart ventricle or in one of the great vessels, to a bi-exponential decay. Similar values were previously derived by measurements of blood samples taken after the bolus injection.
The time-dependent changes in signal enhancement were processed pixel-by-pixel using Tofts' physiological model, the contrast agent pharmacokinetics and pre-contrast T1 values (Table 1), and the calibration algorithms herein described.

[2] = listed under H460 NSCLC tumor tissue; Furman-Haran, 1997; cited from earlier work

**Q.** What does the source list for `O=C([O-])CN(CCN(CC(=O)[O-])CC(=O)O)CCN(CC(=O)[O-])CC(=O)O.[Gd+3]` [Gd-DTPA, Gadolinium-diethylene triamino pentaacetic acid]?
**A.** a1, Amplitude of fast decay [1]: 9.44 kg/L; a2, Amplitude of slow decay [1]: 3.99 kg/L; m1, Fast decay time constant [1]: 0.75 min⁻¹; m2, Slow decay time constant [1]: 0.033 min⁻¹; R1, T1 relaxivity [2]: 4.2 {Furman- s^−1mM^−1
